Data: article PMC12321279, “Novel 4,5‐Dihydrothiazole‐Phenylpiperazine Derivatives: Synthesis, Docking Studies and Pharmacological Evaluation as Serotonergic Agents” (Chemmedchem, 2025)

Tests used:
[1] = test system: mice; assay: DOI‐induced head‐twitch reaction (HTR); format: in vivo; details: 30 mg kg^−1 i.p. 60 min before DOI, 20 min observation
Experimental: (§1) The tests were performed on male white mice of the Albino Swiss strain, whose weight was between 24 and 30 g in Experimental Medicine Center, Medical University of Lublin, Poland. The animals were housed (four/five per cage). Before conducting the experimental tests, the animals were subjected to an adaptation that lasted seven days. This consisted of keeping them in a room with relatively constant conditions: a temperature of 22 ± 1 °C, a humidity of 55 ± 5% and lighting that mimicked the natural day and night rhythm (12 h/12 h). Constant access to food and water was provided. Standard feed—LSM Motycz pelleted feed—and tap water were used. Mice were randomly allocated to study groups. Each group was represented by 8–10 animals, depending on the research schedule. The experiments were performed according to the procedures set out in the regulations for animal experiments: National Institute of Health Guidelines for the Care and Use of Laboratory Animals (8th edition) and to the European Community Council Directive for the Care and Use of Laboratory Animals of 22 September 2010 (2010/63/EU). […]
Head‐twitch reaction (HTR) is a very characteristic behavior of the head. […] Then, after administration of the tested compounds, DOI was immediately observed for 20 min, and the number of HTR was counted. […]

[2] = test system: larval zebrafish; assay: PTZ‐induced acute seizure assay in larval zebrafish; format: in vivo, zebrafish (Danio rerio); details: 5 dpf larvae, 20 h incubation at maximum‐tolerated concentration (FG‐1 500 μM, FG‐18 25 μM), PTZ 20 mM, 30 min
Experimental: All experiments were conducted on zebrafish (Danio rerio) larvae up to 5 days post fertilization (dpf), therefore, in accordance with current European legislation, ethical permission to conduct assays was not required. However, housing and experimental procedures were performed in compliance with the National Institute of Health Guidelines for the Care and Use of Laboratory Animals and the European Union Directive of 22 September 2010 (2010/63/EU) on protecting animals used for scientific purposes. All efforts were taken to minimize larvae stress and suffering. Larvae were euthanized with an overdose of tricaine ([…]). […] Before the respective behavioral tests were conducted, larvae at 4 dpf were incubated for 20 h in different arylpiperazine derivatives solutions of maximum‐tolerated concentrations (MCTs), determined during toxicological screening.^[ [30], [32] ^] […] Basic locomotor activity was measured using an automated tracking device, Daniovision by Noldus, and the total distance traveled was quantified using EthoVision XT software of the same company (Wageningen, the Netherlands) over a 30 min long observation period. […] The PTZ‐induced hyperlocomotion (acute seizure assay) was assessed in 5 dpf larval zebrafish (after 20 h incubation with tested derivatives at MCTs). […] Similarly, the data were recorded as the distance traveled (mm) by larvae when exposed to alternating lightning. […]

[3] = test system: mice; assay: Amphetamine‐induced hyperactivity test; format: in vivo; details: 30 mg/kg i.p. 60 min before test, amphetamine 3 mg kg^−1 s.c., 20 min observation
Experimental: as §1, with “(2010/63/EU). The study was approved by the Local Ethical Committee in Lublin (number of ethical approvals: 27/2023). Tested compounds: FG‐1, FG‐4, FG‐5, FG‐6, FG‐7, FG‐8, and FG‐18 were finely ground in mortars with the addition of the emulsifier Tween‐80.” for “(2010/63/EU).”

[4] = test system: mice; assay: Body temperature in normothermic mice; format: in vivo
Experimental: as §1, with “schedule.” for “schedule. The experiments were performed according to the procedures set out in the regulations for animal experiments: National Institute of Health Guidelines for the Care and Use of Laboratory Animals (8th edition) and to the European Community Council Directive for the Care and Use of Laboratory Animals of 22 September 2010 (2010/63/EU).”
Body temperature in normothermic mice was measured in the rectum of animals by thermistor thermometer till 120 min after tested compounds injection. […] The final temperature (tf) was measured 30, 60, 90, and 120 min after the injection of tested compounds. Body temperature changes (Δt) were calculated according to the formula: Δt = tf − ti.

[5] = test system: mice; assay: Spontaneous locomotor activity; format: in vivo; details: 20 min observation
Experimental: The tests were performed on male white mice of the Albino Swiss strain, whose weight was between 24 and 30 g in Experimental Medicine Center, Medical University of Lublin, Poland. The animals were housed (four/five per cage). Before conducting the experimental tests, the animals were subjected to an adaptation that lasted seven days. This consisted of keeping them in a room with relatively constant conditions: a temperature of 22 ± 1 °C, a humidity of 55 ± 5% and lighting that mimicked the natural day and night rhythm (12 h/12 h). Constant access to food and water was provided. Standard feed—LSM Motycz pelleted feed—and tap water were used. Mice were randomly allocated to study groups. Each group was represented by 8–10 animals, depending on the research schedule. The experiments were performed according to the procedures set out in the regulations for animal experiments: National Institute of Health Guidelines for the Care and Use of Laboratory Animals (8th edition) and to the European Community Council Directive for the Care and Use of Laboratory Animals of 22 September 2010 (2010/63/EU). The study was approved by the Local Ethical Committee in Lublin (number of ethical approvals: 27/2023). Tested compounds: FG‐1, FG‐4, FG‐5, FG‐6, FG‐7, FG‐8, and FG‐18 were finely ground in mortars with the addition of the emulsifier Tween‐80. A suspension was obtained, which was then diluted with aqueous solution of 0.5% methylcellulose (tylose). The mixture was then administered intraperitoneally (i.p.) to the animals 60 min before the start of the experiments. Animals in the control groups received a 0.5% tylose solution. All substances were administered via the same route of administration in appropriate dose and volume of 0.1 mL per 10 g of animal body weight. Prior to the administration of the drug, the animals were weighed, during the interval between tests, they were provided with food, water, and constant living conditions.
An Opto‐Varimex‐4 Auto‐Track animal activity meter (Columbus Instruments, USA) was used to study animal movement, which consists of eight transparent cages with lids measuring 43 × 43 × 32 cm, a set of four infrared transmitters (each transmitter has 16 laser beams) and four detectors to monitor animal movements. Testing was initiated 60 min after compound administration. For the spontaneous locomotor activity study, tylose was administered to the control group and the tested compounds. For the amphetamine‐induced or MK‐801‐induced hyperactivity tests, tylose, the tested compounds and after 30 min, amphetamine (3 mg kg^−1) or MK‐801 (0.3 mg kg^−1) were administered. While the test was being performed, animals were individually caged, initially for 5 min of adaptation, followed by 20 min of actual mobility testing.

[6] = 15 mg kg^−1 i.p. 60 min before test
[7] = 30 mg/kg i.p. 60 min before test

Row | SMILES | DOI‐induced HTR (number of head twitches) [1] | distance traveled by PTZ‐exposed larvae (seizure‐like behavior) [2] | amphetamine‐induced hyperactivity [3] | spontaneous locomotor activity [5, 6] | spontaneous locomotor activity [5, 7] | further results
1 | O=C(NCCCN1CCN(c2ccccc2C2=NCCS2)CC1)c1ccccn1 [FG‐1, N‐(3‐(4‐(2‐(4,5‐dihydrothiazol‐2‐yl) phenyl) piperazin‐1‐yl) propyl) picolinamide] | significant decrease in HTR | substantially decreased | significant decrease in amphetamine‐induced hyperactivity |  |  | 
2 | O=C(NCCCN1CCN(c2ccccc2C2=NCCS2)CC1)c1ccncc1 [FG‐4, N‐(3‐(4‐(2‐(4,5‐dihydrothiazol‐2‐yl) phenyl) piperazin‐1‐yl) propyl) isonicotinamide] |  |  | significant decrease in amphetamine‐induced hyperactivity |  |  | 
3 | O=C(NCCCN1CCN(c2cccc(C3=NCCS3)c2)CC1)c1ccncc1 [FG‐5, N‐(3‐(4‐(3‐(4,5‐dihydrothiazol‐2‐yl) phenyl) piperazin‐1‐yl) propyl) isonicotinamide] |  |  |  |  |  | body temperature of normothermic mice ([4]; 30 mg kg^−1 i.p., from 30 to 90 min): significant decrease in the body temperature
4 | O=C(NCCCN1CCN(c2ccc(C3=NCCS3)cc2)CC1)c1ccncc1 [FG‐6, N‐(3‐(4‐(4‐(4,5‐dihydrothiazol‐2‐yl) phenyl) piperazin‐1‐yl) propyl) isonicotinamide] |  |  |  | did not change the motility of mice | significant decrease in spontaneous locomotor activity | body temperature of normothermic mice ([4]; 15 mg kg^−1 i.p., from 30 to 90 min and also in 120 min): significant decrease in the body temperature
5 | O=C1C2C3C=CC(C3)C2C(=O)N1OCCCN1CCN(c2ccccc2C2=NCCS2)CC1 (stereo not drawn) [FG‐7, 2‐(3‐(4‐(2‐(4,5‐dihydrothiazol‐2‐yl) phenyl) piperazin‐1‐yl) propoxy)‐3a,4,7,7a‐tetrahydro‐1 H‐4,7‐methanoisoindole‐1,3(2 H)‐dione] |  |  |  | did not change the motility of mice | significant decrease in spontaneous locomotor activity | 
6 | O=C(NCCCN1CCN(c2ccc(C3=NCCS3)cc2)CC1)C1CC2C=CC1C2 (stereo not drawn) [FG‐18, Endo‐ N‐(3‐(4‐(4‐(4,5‐dihydrothiazol‐2‐yl)phenyl)piperazin‐1‐yl)propyl) bicyclo[2.2.1]hept‐5‐ene‐2‐carboxamide] | significant decrease in HTR | significantly increased the distance traveled |  |  |  | 
